Peptide text beside a SMILES is read from it. * marks the point of attachment. Cbz = O=C(OCc1ccccc1)*; CH2F = FC*
Key:
RAW 264.7 cells [1] = assay: LPS-induced HMGB1 protein in RAW 264.7 cell supernatants by Western blot; format: cell-based, Murine; settings: LPS 200 ng/ml, 0.1 to 10 μM, 16 h
Protocol: Treatment of RAW 264.7 cells with caspase inhibitor and Western blotting of HMGB1. Murine macrophage-like RAW 264.7 cells (American Type Culture Collection, ATCC, Rockville, Md.) were cultured in a 24-well culture dish in RPMI 1640 medium (Life Technologies, Grand Island, N.Y.), supplemented with 10% fetal bovine serum (Gemini, Catabasas, Calif.), penicillin and streptomycin (Life Technologies). Cells were used at 90% confluence and treatment was carried out in serum-free Opti-MEM I medium (Life Technologies). The cells were treated with LPS (200 ng/ml, Sigma, E. coli. 0111:B4) and various concentrations, ranging from 0.1 to 10 μM, of either the caspase inhibitor, Z-VAD-FMK (BD Biosciences), or a control peptide, Z-FA-FMK (BD Biosciences), in Opti-MEM I medium (Life Technologies, Grand Island, N.Y.). After 16 h, cell culture supernatants were concentrated by Centricon 10 (Millpore Corp., Bedford, Mass.) and HMGB1 levels were determined by Western blot. […] Western blots were scanned with a silver image scanner (Silverscanner II, Lacie Limited, Beaverton, Oreg.), and the relative band intensity was quantified using the NIH image 1.59 software. The levels of HMGB1 were calculated with reference to standard curves generated with purified HMGB1.

IL-6, KC, MIP-2 = assay: Cytokine levels (IL-6, KC, MIP-2) in serum and BAL of CLP septic mice by ELISA; format: in vivo, BALB/c mice; settings: 0.5 mg IP at 90 min after surgery, 24 h
Protocol: (§1) Cecal ligation and puncture (CLP) surgery was performed on BALB/c mice to induce sepsis as described previously (Fink, M. P. and Heard, S. O., J. Surg. Res. 49:186-96 (1990); Friedman, G., et al., Crit. Care Med. 26:2078-86 (1998); Remick, D., et al., Shock 4:89-95 (1995)). At 90 min after the surgery, 0.5 mg of either Z-VAD-FMK (VAD) caspase inhibitor or Z-FA-FMK control peptide was administered to each mouse by intraperitoneal injection. Mice were euthanized 24 h after CLP. HMGB1 protein levels in bronchoalveolar fluid (BAL), peritoneal fluid and serum were measured (FIG. 6). Protein levels of certain serum (e.g., IL-6, KC, MIP-2) and BAL (e.g., KC, MW-2) cytokines were determined (FIG. 7). Cell-conditioned medium, lung lavage fluid or peritoneal lavage fluid (100-2000) were first concentrated by passing through Centricon 10 (Millpore Corp. Bedford, Mass.). Cytokines were measured by using an enzyme-linked immunosorbent assay (ELISA) kit according to the instructions of the manufacturer (R & D System Inc., Minneapolis, Minn.). To determine HMGB1 concentrations, Centricon 10-filtered samples were fractionated by SDS-PAGE, transferred to PVDF Immunoblot membrane (Bio-Rad laboratories, Hercules, Calif.), and probed with polyclonal anti-HMGB1 IgG (5 μg/ml) for Western blot. Donkey anti-rabbit IgG conjugated with HRP (Amersham, Little Chalfont Buckinghamshire, England) and used at final dilution of 1:5,000. Polyclonal antibodies raised against purified HMGB1 were generated in rabbits (Cocalico Biologicals, Inc., Reamstown, Pa.) and IgG was purified using protein A agarose according to manufacturer's instructions (Pierce, Rockford, Ill.). Western blots were scanned with a silver image scanner ([…] Limited, Beaverton, Oreg.), and the relative band intensity was quantified by using the NIH image 1.59° software. The levels of HMGB1 were calculated with reference to standard curves generated with purified HMGB1.

RAW 264.7 cells [2] = assay: HMGB1 translocation in LPS-treated RAW 264.7 cells by immunofluorescence; format: cell-based, Murine; settings: LPS 100 ng/ml, 1 μM, 16 hours
Protocol: RAW 264.7 cells were plated in 8-well slide chambers (Lab-Tek, Nalge Nunc Internationals, Naperville, Ill.) and used at 60% confluence. Cells were incubated with LPS (100 ng/ml) alone, or LPS (100 ng/ml) with either 1 μM Z-VAD-FMK (VAD) or Z-FA-FMK control peptide for 16 hours in Opti-MEM I medium. Cells were washed 3 times with phosphate-buffered saline (PBS) at pH 7.2 and fixed in 2% neutral formalin for 20 minutes at room temperature. Polyclonal anti-HMGB1 antibody was added at a concentration of 2.5 μg/ml and incubated for an additional 30 minutes at room temperature. FITC-labeled anti-rabbit IgG was added (1:300 dilution, Sigma, St. Louis, Mo.; Cat. No. F9887). Cells were then washed 3 times with PBS (pH 7.2) with 0.1% saponin (Sigma Cat. #S4521), and mounted for fluorescent confocal microscopy analysis. To mount cells on a slide, one drop of VECTASHIELD mounting medium (Vector Lab, Cat#H-10000) was dispensed on to the section and allowed to cover the entire section. A coverslip was added, and the slides were imaged using a Zeiss, Axiovert 200 microscope (Gottingen, Germany).

apoptotic cells = assay: Caspase 3 and TUNEL staining of spleen and thymus sections of CLP septic mice; format: in vivo, BALB/c mice; settings: 0.5 mg IP at 90 min after surgery, 24 h
Protocol: Cecal ligation and puncture (CLP) surgery was performed on BALB/c mice to induce sepsis as described previously (Fink, M. P. and Heard, S. O., J. Surg. Res. 49:186-96 (1990); Friedman, G., et al., Crit. Care Med. 26:2078-86 (1998); Remick, D., et al., Shock 4:89-95 (1995)). At 90 min after the surgery, 0.5 mg of either Z-VAD-FMK (VAD) caspase inhibitor or Z-FA-FMK control peptide was administered to each mouse by intraperitoneal injection. Mice were euthanized 24 h after CLP.
Apoptotic cells were detected by performing Caspase 3 staining (FIG. 8A) and TUNEL staining (FIG. 8B) on fixed spleen and thymus sections from sacrificed mice that were either untreated (Normal) or treated with Z-VAD-FMK (VAD) caspase inhibitor (CLP+VAD) or Z-FA-FMK control peptide (CLP+ctrl) following CLP surgery. […] mice were analyzed in each group. Tissue sections were cut at 5 μm. Sections were placed on glass slides and subjected to staining using a TUNEL assay, performed according to manufacturer's protocol (ApoAlert DNA fragmentation assay kit, BD BioSciences, Palo Alto, Calif., Cat# K2024-1). […] Four to five mice were analyzed from each group.

HMGB1 = HMGB1 protein levels in BAL, peritoneal fluid and serum of CLP septic mice; format: in vivo, BALB/c mice; settings: 0.5 mg IP at 90 min after surgery, 24 h, BAL fluid
Protocol: as §1, with “To determine HMGB1 concentrations, Centricon 10-filtered samples were fractionated by SDS-PAGE, transferred to PVDF Immunoblot membrane (Bio-Rad laboratories, Hercules, Calif.), and probed with polyclonal anti-HMGB1 IgG (5 μg/ml) for Western blot. Donkey anti-rabbit IgG conjugated with HRP (Amersham, Little Chalfont Buckinghamshire, England) and used at final dilution of 1:5,000. Polyclonal antibodies raised against purified HMGB1 were generated in rabbits (Cocalico Biologicals, Inc., Reamstown, Pa.) and IgG was purified using protein A agarose according to manufacturer's instructions (Pierce, Rockford, Ill.).” left out

SMILES	LPS-induced expression of HMGB1 protein (RAW 264.7 cells [1])	IL-6 expression in septic mice (IL-6, KC, MIP-2)	KC expression in septic mice (IL-6, KC, MIP-2)	MIP-2 expression in septic mice (IL-6, KC, MIP-2)	HMGB1 translocation to the cytoplasm (RAW 264.7 cells [2])	number of apoptotic cells in spleen and thymus sections (apoptotic cells)	HMGB1 expression in septic mice (HMGB1)
CC(NC(=O)[C@H](Cc1ccccc1)NC(=O)OCc1ccccc1)C(=O)CF (some centres unmarked) [Z-FA-FMK]	did not have an effect on HMGB1 expression	–	–	–	–	–	–
COC(=O)CC(NC(=O)C(C)NC(=O)C(NC(=O)OCc1ccccc1)C(C)C)C(=O)CF (stereo not drawn) [Z-VAD-FMK, carbobenzoxyl-valyl-alanyl-aspartyl-[O-methyl]-fluoromethylketone] (Cbz-Val-Ala-Asp(OMe)-CH2F; configuration not given here)	inhibited LPS-induced expression of HMGB1 protein in a dose-dependent manner	inhibited expression	inhibited expression	inhibited expression	inhibited HMGB1 translocation to the cytoplasm	reduced the number of apoptotic cells	inhibited expression

— patent US20100040607A1, “Combination Therapy with Inhibitors of HMGB and Caspase for the Treatment of Inflammatory Diseases” (priority 2005, published 2010)
